Reference: patent US8664220B2, “Polycyclic compounds as lysophosphatidic acid receptor antagonists” (Amira Pharmaceuticals, Inc., priority 2009, dated 2014)

Target: T1, human LPA1 (Homo sapiens, UniProt Q92633)
T1 construct: the full-length cDNA for human LPA1 was obtained by PCR of the reverse transcription reaction; expressed in transfected cells
Assay: LPA1 calcium flux assay
Assay type: cell-based
Details: human LPA1 expressing CHO cells, stimulated with 10 nM LPA; read-out: HLPA1 Ca Flux IC50
Outline: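 CHO cells stably expressing human LPA1, serum-starved overnight and loaded with Calcium 4 dye in HBSS/20 mM Hepes/0.3% fatty-acid-free HSA, 1 h at 37 °C. Compounds pre-incubated 30 min at room temperature, then 10 nM LPA added; intracellular Ca2+ flux measured and IC50 from titration curves.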

T1 sequence (Q92633 whole entry): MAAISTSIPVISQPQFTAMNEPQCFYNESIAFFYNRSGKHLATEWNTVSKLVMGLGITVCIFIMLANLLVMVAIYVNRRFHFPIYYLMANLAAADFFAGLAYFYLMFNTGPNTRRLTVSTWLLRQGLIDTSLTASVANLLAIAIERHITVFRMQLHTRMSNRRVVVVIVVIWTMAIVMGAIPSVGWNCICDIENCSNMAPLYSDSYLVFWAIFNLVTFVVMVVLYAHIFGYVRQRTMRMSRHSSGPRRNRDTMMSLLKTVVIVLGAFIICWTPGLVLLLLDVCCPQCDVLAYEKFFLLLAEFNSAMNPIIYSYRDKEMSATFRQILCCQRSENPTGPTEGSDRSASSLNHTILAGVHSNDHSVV

Question: Which IC50 does the source give for `Cc1noc(-c2ccc(-c3ccc(C4(C(=O)O)CC4)cc3)cc2)c1Nc1cncc(-c2ccccc2)c1` [Compound 1-107, 1-{4′-[3-Methyl-4-(5-phenyl-pyridin-3-ylamino)-isoxazol-5-yl]-biphenyl-4-yl}-cyclopropanecarboxylic acid] here?
Answer: < 300 nM

Question: Which IC50 does the source give for `Cc1noc(-c2ccc(-c3ccc(C4(C(=O)O)CC4)cc3)cc2)c1Nc1cncc(-c2cccc(F)c2)c1` [Compound 1-108, 1-(4′-{4-[5-(3-Fluoro-phenyl)-pyridin-3-ylamino]-3-methyl-isoxazol-5-yl}-biphenyl-4-yl)-cyclopropanecarboxylic acid] here?
Answer: < 300 nM

Question: `Cc1noc(-c2ccc(-c3ccc(C4(C(=O)O)CC4)cc3)cc2)c1Nc1cccc(-c2ccccc2Cl)n1` [Compound 1-109, 1-(4′-{4-[6-(2-Chloro-phenyl)-pyridin-2-ylamino]-3-methyl-isoxazol-5-yl}-biphenyl-4-yl)-cyclopropanecarboxylic acid] was tested. Which IC50 did it give?
Answer: < 300 nM

Question: `Cc1noc(-c2ccc(-c3ccc(C4(C(=O)O)CC4)cc3)cc2)c1C(O)c1cccc(-c2ccccc2)n1` (stereo not drawn) [Compound 1-110, 1-(4′-{4-[Hydroxy-(6-phenyl-pyridin-2-yl)-methyl]-3-methyl-isoxazol-5-yl}-biphenyl-4-yl)-cyclopropanecarboxylic acid] was tested. Which IC50 did it give?
Answer: < 300 nM

Question: How did the IC50 turn out when `Cc1noc(-c2ccc(-c3ccc(C4(C(=O)O)CC4)cc3)cc2)c1Nc1ccnc(-c2ccccc2)c1` [Compound 1-111, 1-{4′-[3-Methyl-4-(2-phenyl-pyridin-4-ylamino)-isoxazol-5-yl]-biphenyl-4-yl}-cyclopropanecarboxylic acid] was run?
Answer: 300 to 1000 nM

Question: With `Cc1noc(-c2ccc(-c3ccc(C4(C(=O)O)CC4)cc3)cc2)c1Nc1ccnc(-c2cccc(F)c2)c1` [Compound 1-112, 1-(4′-{4-[2-(3-Fluoro-phenyl)-pyridin-4-ylamino]-3-methyl-isoxazol-5-yl}-biphenyl-4-yl)-cyclopropanecarboxylic acid] as the compound, how does the IC50 read?
Answer: 1000 to 50000 nM

Question: With `Cc1noc(-c2ccc(-c3ccc(C4(C(=O)O)CC4)cc3)cc2)c1Nc1cncc(-c2ccccc2Cl)c1` [Compound 1-113, 1-(4′-{4-[5-(2-Chloro-phenyl)-pyridin-3-ylamino]-3-methyl-isoxazol-5-yl}-biphenyl-4-yl)-cyclopropanecarboxylic acid] as the compound, how does the IC50 read?
Answer: < 300 nM

Question: For `Cc1noc(-c2ccc(-c3ccc(C4(C(=O)O)CC4)cc3)cc2)c1Nc1ccnc(-c2ccccc2Cl)c1` [Compound 1-114, 1-(4′-{4-[2-(2-Chloro-phenyl)-pyridin-4-ylamino]-3-methyl-isoxazol-5-yl}-biphenyl-4-yl)-cyclopropanecarboxylic acid], which IC50 is on record?
Answer: < 300 nM

Question: `Cc1noc(-c2ccc(-c3ccc(C4(C(=O)O)CC4)cc3)cc2)c1Nc1nccc(-c2ccccc2)n1` [Compound 1-115, 1-{4′-[3-Methyl-4-(4-phenyl-pyrimidin-2-ylamino)-isoxazol-5-yl]-biphenyl-4-yl}-cyclopropanecarboxylic acid] was tested. Which IC50 did it give?
Answer: < 300 nM

Question: How did the IC50 turn out when `Cc1noc(-c2ccc(-c3ccc(C4(C(=O)O)CC4)cc3)cc2)c1Nc1cc(-c2ccccc2)ccn1` [Compound 1-116, 1-{4′-[3-Methyl-4-(4-phenyl-pyridin-2-ylamino)-isoxazol-5-yl]-biphenyl-4-yl}-cyclopropanecarboxylic acid] was run?
Answer: < 300 nM

Question: For `Cc1noc(-c2ccc(-c3ccc(C4(C(=O)O)CC4)cc3)cc2)c1Nc1cccc(-c2ccccc2CN(C)C)c1` [Compound 1-117, 1-{4′-[4-(2′-Dimethylaminomethyl-biphenyl-3-ylamino)-3-methyl-isoxazol-5-yl]-biphenyl-4-yl}-cyclopropanecarboxylic acid], which IC50 is on record?
Answer: < 300 nM

Question: For `Cc1noc(-c2ccc(-c3ccc(C4(C(=O)O)CC4)cc3)cc2)c1Nc1cncc(-c2cccc(C(F)(F)F)c2)c1` [Compound 1-118, 1-(4′-{3-Methyl-4-[5-(3-trifluoromethyl-phenyl)-pyridin-3-ylamino]-isoxazol-5-yl}-biphenyl-4-yl)-cyclopropanecarboxylic acid], which IC50 is on record?
Answer: < 300 nM

Question: With `Cc1noc(-c2ccc(-c3ccc(C4(C(=O)O)CC4)cc3)cc2)c1Nc1cncc(-c2ccc(C(F)(F)F)cc2)c1` [Compound 1-119, 1-(4′-{3-Methyl-4-[5-(4-trifluoromethyl-phenyl)-pyridin-3-ylamino]-isoxazol-5-yl}-biphenyl-4-yl)-cyclopropanecarboxylic acid] as the compound, how does the IC50 read?
Answer: < 300 nM

Question: `Cc1noc(-c2ccc(-c3ccc(C4(C(=O)O)CC4)cc3)cc2)c1N(c1cccc(Cc2ccccc2)n1)c1cccc(Cc2ccccc2)n1` [Compound 1-120, 1-(4′-{4-[Bis-(6-benzyl-pyridin-2-yl)-amino]-3-methyl-isoxazol-5-yl}-biphenyl-4-yl)-cyclopropanecarboxylic acid] was tested. Which IC50 did it give?
Answer: 1000 to 50000 nM

Question: With `Cc1noc(-c2ccc(-c3ccc(C4(C(=O)O)CC4)cc3)cc2)c1NC(=O)c1cccc(-c2ccccc2CN(C)C)c1` [Compound 1-121, 1-(4′-{4-[(2′-Dimethylaminomethyl-biphenyl-3-carbonyl)-amino]-3-methyl-isoxazol-5-yl}-biphenyl-4-yl)-cyclopropanecarboxylic acid] as the compound, how does the IC50 read?
Answer: > 50000 nM

Question: How did the IC50 turn out when `Cc1noc(-c2ccc(-c3ccc(C4(C(=O)O)CCC4)cc3)cc2)c1Nc1cccc(-c2ccccc2)n1` [Compound 1-122, 1-{4′-[3-Methyl-4-(6-phenyl-pyridin-2-ylamino)-isoxazol-5-yl]-biphenyl-4-yl}-cyclobutanecarboxylic acid] was run?
Answer: < 300 nM

Question: With `Cc1noc(-c2ccc(-c3ccc(C4(C(=O)O)CC4)cc3)cc2)c1Nc1cccc(-n2cccn2)n1` [Compound 1-123, 1-{4′-[3-Methyl-4-(6-pyrazol-1-yl-pyridin-2-ylamino)-isoxazol-5-yl]-biphenyl-4-yl}-cyclopropanecarboxylic acid] as the compound, how does the IC50 read?
Answer: < 300 nM

Question: How did the IC50 turn out when `Cc1noc(-c2ccc(-c3ccc(C4(C(=O)O)CC4)cc3)cc2)c1Nc1cccc(N2CCOCC2)n1` [Compound 1-124, 1-{4′-[3-Methyl-4-(6-morpholin-4-yl-pyridin-2-ylamino)-isoxazol-5-yl]-biphenyl-4-yl}-cyclopropanecarboxylic acid] was run?
Answer: < 300 nM

Question: Which IC50 does the source give for `Cc1noc(-c2ccc(-c3ccc(C4(C(=O)O)CC4)cc3)cc2)c1Nc1cccc(OCc2ccccc2)n1` [Compound 1-125, 1-{4′-[4-(6-Benzyloxy-pyridin-2-ylamino)-3-methyl-isoxazol-5-yl]-biphenyl-4-yl}-cyclopropanecarboxylic acid] here?
Answer: < 300 nM

Question: Which IC50 does the source give for `Cc1noc(-c2ccc(-c3ccc(C4(C(=O)O)CC4)cc3)cc2)c1Nc1cccc(Sc2ccccc2)n1` [Compound 1-126, 1-{4′-[3-Methyl-4-(6-phenylsulfanyl-pyridin-2-ylamino)-isoxazol-5-yl]-biphenyl-4-yl}-cyclopropanecarboxylic acid] here?
Answer: < 300 nM

Question: With `Cc1noc(-c2ccc(-c3ccc(C4(C(=O)O)CC4)cc3)cc2)c1Nc1cccc([S+]([O-])c2ccccc2)n1` (stereo not drawn) [Compound 1-127, 1-{4′-[4-(6-Benzenesulfinyl-pyridin-2-ylamino)-3-methyl-isoxazol-5-yl]-biphenyl-4-yl}-cyclopropanecarboxylic acid] as the compound, how does the IC50 read?
Answer: < 300 nM

Question: With `Cc1noc(-c2ccc(-c3ccc(C4(C(=O)O)CC4)cc3)cc2)c1Nc1cccc(S(=O)(=O)c2ccccc2)n1` [Compound 1-128, 1-{4′-[4-(6-Benzenesulfonyl-pyridin-2-ylamino)-3-methyl-isoxazol-5-yl]-biphenyl-4-yl}-cyclopropanecarboxylic acid] as the compound, how does the IC50 read?
Answer: < 300 nM

Question: With `Cc1noc(-c2ccc(-c3ccc(C4(C(=O)O)CC4)cc3)cc2)c1C(O)c1cncc(-c2ccccc2)c1` (stereo not drawn) [Compound 1-129, 1-(4′-{4-[Hydroxy-(5-phenyl-pyridin-3-yl)-methyl]-3-methyl-isoxazol-5-yl}-biphenyl-4-yl)-cyclopropanecarboxylic acid] as the compound, how does the IC50 read?
Answer: < 300 nM

Question: For `Cc1noc(-c2ccc(-c3ccc(C4(C(=O)O)CC4)cc3)cc2)c1C(O)c1cncc(-c2cccc(C(F)(F)F)c2)c1` (stereo not drawn) [Compound 1-130, 1-[4′-(4-{Hydroxy-[5-(3-trifluoromethyl-phenyl)-pyridin-3-yl]-methyl}-3-methyl-isoxazol-5-yl)-biphenyl-4-yl]-cyclopropanecarboxylic acid], which IC50 is on record?
Answer: < 300 nM

Question: How did the IC50 turn out when `Cc1noc(-c2ccc(-c3ccc(C4(C(=O)O)CC4)cc3)cc2)c1Nc1cccc(C#Cc2ccccc2)n1` [Compound 1-131, 1-{4′-[3-Methyl-4-(6-phenylethynyl-pyridin-2-ylamino)-isoxazol-5-yl]-biphenyl-4-yl}-cyclopropanecarboxylic acid] was run?
Answer: < 300 nM

Question: For `Cc1noc(-c2ccc(-c3ccc(CCC(=O)O)cc3)cc2)c1Nc1cccc(-c2ccccc2)n1` [Compound 1-132, 3-{4′-[3-Methyl-4-(6-phenyl-pyridin-2-ylamino)-isoxazol-5-yl]-biphenyl-4-yl}-propionic acid], which IC50 is on record?
Answer: < 300 nM

Question: With `Cc1noc(-c2ccc(-c3ccc(C(C)(C)C(=O)O)cc3)cc2)c1Nc1cccc(-c2ccccc2)n1` [Compound 1-133, 2-Methyl-2-{4′-[3-methyl-4-(6-phenyl-pyridin-2-ylamino)-isoxazol-5-yl]-biphenyl-4-yl}-propionic acid] as the compound, how does the IC50 read?
Answer: < 300 nM

Question: `Cc1noc(-c2ccc(-c3ccc(C4(CC(=O)O)CC4)cc3)cc2)c1Nc1cccc(-c2ccccc2)n1` [Compound 1-134, (1-{4′-[3-Methyl-4-(6-phenyl-pyridin-2-ylamino)-isoxazol-5-yl]-biphenyl-4-yl}-cyclopropyl)-acetic acid] was tested. Which IC50 did it give?
Answer: < 300 nM

Question: Which IC50 does the source give for `Cc1noc(-c2ccc(-c3ccc(C4(C(=O)O)CC4)cc3)cc2)c1Nc1cccc(C#CC2CCCC2)n1` [Compound 1-135, 1-{4′-[4-(6-Cyclopentylethynyl-pyridin-2-ylamino)-3-methyl-isoxazol-5-yl]-biphenyl-4-yl}-cyclopropanecarboxylic acid] here?
Answer: 300 to 1000 nM

Question: Which IC50 does the source give for `Cc1noc(-c2ccc(-c3ccc(C4(C(=O)O)CC4)cc3)cc2)c1Nc1cccc(C(=O)N2CCCC2)n1` [Compound 1-136, 1-(4′-{3-Methyl-4-[6-(pyrrolidine-1-carbonyl)-pyridin-2-ylamino]-isoxazol-5-yl}-biphenyl-4-yl)-cyclopropanecarboxylic acid] here?
Answer: < 300 nM
